Assay results taken from patent US8802597B2, “Herbicidal pyrimidines” (E I du Pont de Nemours and Company, priority 2003, dated 2014).
Where two headings read alike, the source gives them in different places.

Legend:
Type in all cases: in vivo
[1] = system: chickweed (Stellaria media); assay: Test C postemergence; details: Stellaria media, post-emergence
Method in brief: (§1)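 Visual injury ratings, 0 (no effect) to 100 (complete control), made 12 to 14 days after treatment by comparison with untreated controls. Greenhouse plants received test chemical in a surfactant-containing non-phytotoxic solvent, either preemergence on planted seeds or postemergence at the 1- to 4-leaf stage.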

[2] = system: pigweed (Amaranthus retroflexus); assay: Test C pre/postemergence; details: Amaranthus retroflexus; for pest or weed control at 62 g/ha: 62 g ai/ha; for pest or weed control at 125 g/ha: 125 g ai/ha; for pest or weed control at 250 g/ha: 250 g ai/ha; for pest or weed control at 500 g/ha: 500 g ai/ha
Method in brief: as §1

[3] = system: velvetleaf (Abutilon theophrasti); assay: Test C pre/postemergence; details: Abutilon theophrasti; for pest or weed control at 62 g/ha: 62 g ai/ha; for pest or weed control at 125 g/ha: 125 g ai/ha; for pest or weed control at 250 g/ha: 250 g ai/ha; for pest or weed control at 500 g/ha: 500 g ai/ha
Method in brief: as §1

[4] = system: common ragweed (Ambrosia elatior); assay: Test C pre/postemergence; details: Ambrosia artemisiifolia; for pest or weed control at 62 g/ha: 62 g ai/ha; for pest or weed control at 125 g/ha: 125 g ai/ha; for pest or weed control at 250 g/ha: 250 g ai/ha; for pest or weed control at 500 g/ha: 500 g ai/ha
Method in brief: as §1

[5] = system: bermudagrass (Cynodon dactylon); assay: Test C pre/postemergence; details: Cynodon dactylon; for pest or weed control at 62 g/ha: 62 g ai/ha; for pest or weed control at 125 g/ha: 125 g ai/ha; for pest or weed control at 125 g/ha / pest or weed control at 250 g/ha / pest or weed control at 500 g/ha: scale 0 to 100; for pest or weed control at 250 g/ha: 250 g ai/ha; for pest or weed control at 500 g/ha: 500 g ai/ha
Method in brief: as §1

[6] = system: yellow nutsedge (Cyperus esculentus); assay: Test C pre/postemergence; details: Cyperus; for pest or weed control at 62 g/ha: 62 g ai/ha; for pest or weed control at 125 g/ha: 125 g ai/ha; for pest or weed control at 250 g/ha: 250 g ai/ha; for pest or weed control at 500 g/ha: 500 g ai/ha
Method in brief: as §1

[7] = system: woolly cupgrass (Eriochloa villosa); assay: Test C pre/postemergence; details: Eriochloa villosa; for pest or weed control at 62 g/ha: 62 g ai/ha; for pest or weed control at 125 g/ha: 125 g ai/ha; for pest or weed control at 250 g/ha: 250 g ai/ha; for pest or weed control at 500 g/ha: 500 g ai/ha
Method in brief: as §1

[8] = system: goosegrass (Eleusine indica); assay: Test C pre/postemergence; details: Eleusine indica; for pest or weed control at 62 g/ha: 62 g ai/ha; for pest or weed control at 125 g/ha: 125 g ai/ha; for pest or weed control at 250 g/ha: 250 g ai/ha; for pest or weed control at 500 g/ha: 500 g ai/ha
Method in brief: as §1

[9] = system: crabgrass (Digitaria sanguinalis); assay: Test A pre/postemergence; details: Digitaria sanguinalis, 240 h, read-out: Plant response rating, Crabgrass; for pest or weed control at 500 g/ha: 500 g ai/ha; for pest or weed control at 2000 g/ha: 2000 g ai/ha
Method in brief: (§2)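 Ratings: 0 = no effect, 100 = complete control, assessed visually about ten days post-treatment in a greenhouse. Applications: soil-directed preemergence spray and postemergence spray on 1- to 2-leaf plants, both using a surfactant-containing non-phytotoxic solvent formulation.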

[10] = system: barnyardgrass (Echinochloa crus-galli); assay: Test A pre/postemergence; details: Echinochloa crus-galli, 240 h, read-out: Plant response rating, Barnyardgrass; for pest or weed control at 500 g/ha: 500 g ai/ha; for pest or weed control at 2000 g/ha: 2000 g ai/ha
Method in brief: as §2

[11] = post-emergence, Postemergence, scale 0 to 100 (0 no effect, 100 complete control), read-out: Pigweed plant response rating
[12] = post-emergence, Postemergence, scale 0 to 100, read-out: Plant response rating, Pigweed
[13] = pre-emergence, Preemergence, scale 0 to 100, read-out: Plant response rating, Pigweed
[14] = post-emergence, Postemergence, scale 0 to 100 (0 no effect, 100 complete control), read-out: Velvetleaf plant response rating
[15] = post-emergence, Postemergence, scale 0 to 100, read-out: Plant response rating, Velvetleaf
[16] = pre-emergence, Preemergence, scale 0 to 100, read-out: Plant response rating, Velvetleaf
[17] = post-emergence, Postemergence, scale 0 to 100 (0 no effect, 100 complete control), read-out: Ragweed plant response rating
[18] = post-emergence, Postemergence, scale 0 to 100, read-out: Plant response rating, Ragweed
[19] = pre-emergence, Preemergence, scale 0 to 100, read-out: Plant response rating, Ragweed
[20] = post-emergence, Postemergence, read-out: Plant response rating, Bermudagrass
[21] = pre-emergence, Preemergence, read-out: Plant response rating, Bermudagrass
[22] = post-emergence, Postemergence, scale 0 to 100 (0 no effect, 100 complete control), read-out: Nutsedge, Yellow plant response rating
[23] = post-emergence, Postemergence, scale 0 to 100, read-out: Plant response rating, Nutsedge, Yellow
[24] = pre-emergence, Preemergence, scale 0 to 100, read-out: Plant response rating, Nutsedge, Yellow
[25] = post-emergence, Postemergence, scale 0 to 100 (0 no effect, 100 complete control), read-out: Cupgrass, Woolly plant response rating
[26] = post-emergence, Postemergence, scale 0 to 100, read-out: Plant response rating, Cupgrass, Woolly
[27] = pre-emergence, Preemergence, scale 0 to 100, read-out: Plant response rating, Cupgrass, Woolly
[28] = post-emergence, Postemergence, scale 0 to 100 (0 no effect, 100 complete control), read-out: Goosegrass plant response rating
[29] = post-emergence, Postemergence, scale 0 to 100, read-out: Plant response rating, Goosegrass
[30] = pre-emergence, Preemergence, scale 0 to 100, read-out: Plant response rating, Goosegrass
[31] = post-emergence, Postemergence, 0 to 100 scale (0 no effect, 100 complete control)
[32] = pre-emergence, Preemergence, 0 to 100 scale where 0 is no effect and 100 is complete control, approximately ten days
[33] = pre-emergence, Preemergence, 0 to 100 scale (0 no effect, 100 complete control)

CCOC(=O)c1nc(C2CC2)nc(N)c1Br [Compound 1, ethyl 6-amino-5-bromo-2-cyclopropyl-4-pyrimidinecarboxylate]
65%: pest or weed control at 62 g/ha [7, 25] | pest or weed control at 500 g/ha [9, 31]
80%: pest or weed control at 62 g/ha ([1]; 62 g ai/ha, scale 0 to 100 (0 no effect, 100 complete control), read-out: Chickweed plant response rating) | pest or weed control at 62 g/ha ([3]; pre-emergence, Preemergence, scale 0 to 100, 0 no effect, 100 complete control, read-out: Plant response rating, Velvetleaf) | pest or weed control at 125 g/ha [7, 25] | pest or weed control at 2000 g/ha [9, 31] | pest or weed control at 2000 g/ha [10, 33]
90%: pest or weed control at 250 g/ha ([1]; 250 g ai/ha, scale 0 to 100, read-out: Plant response rating, Chickweed) | pest or weed control at 62 g/ha [2, 11] | pest or weed control at 62 g/ha ([2]; pre-emergence, Preemergence, scale 0 to 100, 0 no effect, 100 complete control, read-out: Plant response rating, Pigweed) | pest or weed control at 125 g/ha [3, 14] | pest or weed control at 125 g/ha [3, 16] | pest or weed control at 125 g/ha [5, 20] | pest or weed control at 250 g/ha [5, 20] | pest or weed control at 500 g/ha [5, 20] | pest or weed control at 500 g/ha [5, 21] | pest or weed control at 250 g/ha [7, 26] | pest or weed control at 500 g/ha [7, 26] | pest or weed control at 250 g/ha [7, 27]
60%: pest or weed control at 125 g/ha [7, 27] | pest or weed control at 500 g/ha [10, 32]
10%: pest or weed control at 250 g/ha [8, 30]
85%: pest or weed control at 62 g/ha [3, 14]
95%: pest or weed control at 250 g/ha [3, 16] | pest or weed control at 62 g/ha ([4]; pre-emergence, Preemergence, scale 0 to 100, 0 no effect, 100 complete control, read-out: Plant response rating, Ragweed) | pest or weed control at 500 g/ha [7, 27]
0%: pest or weed control at 62 g/ha ([5]; pre-emergence, Preemergence, scale 0 to 100, 0 no effect, 100 complete control, read-out: Plant response rating, Bermudagrass) | pest or weed control at 62 g/ha [6, 22] | pest or weed control at 125 g/ha [6, 22] | pest or weed control at 62 g/ha ([6]; pre-emergence, Preemergence, scale 0 to 100, 0 no effect, 100 complete control, read-out: Plant response rating, Nutsedge, Yellow) | pest or weed control at 125 g/ha [6, 24] | pest or weed control at 62 g/ha ([7]; pre-emergence, Preemergence, scale 0 to 100, 0 no effect, 100 complete control, read-out: Plant response rating, Cupgrass, Woolly) | pest or weed control at 62 g/ha [8, 28] | pest or weed control at 125 g/ha [8, 28] | pest or weed control at 62 g/ha ([8]; pre-emergence, Preemergence, scale 0 to 100, 0 no effect, 100 complete control, read-out: Plant response rating, Goosegrass) | pest or weed control at 125 g/ha [8, 30]
25%: pest or weed control at 500 g/ha [9, 32]
100%: pest or weed control at 125 g/ha [2, 11] | pest or weed control at 250 g/ha [2, 12] | pest or weed control at 500 g/ha [2, 12] | pest or weed control at 125 g/ha [2, 13] | pest or weed control at 250 g/ha [2, 13] | pest or weed control at 500 g/ha [2, 13] | pest or weed control at 250 g/ha [3, 15] | pest or weed control at 500 g/ha [3, 15] | pest or weed control at 500 g/ha [3, 16] | pest or weed control at 62 g/ha [4, 17] | pest or weed control at 125 g/ha [4, 17] | pest or weed control at 250 g/ha [4, 18] | pest or weed control at 500 g/ha [4, 18] | pest or weed control at 125 g/ha [4, 19] | pest or weed control at 250 g/ha [4, 19] | pest or weed control at 500 g/ha [4, 19]
70%: pest or weed control at 62 g/ha ([5]; post-emergence, Postemergence, scale 0 to 100 (0 no effect, 100 complete control), read-out: Bermudagrass plant response rating) | pest or weed control at 250 g/ha [5, 21] | pest or weed control at 500 g/ha [8, 29] | pest or weed control at 500 g/ha [8, 30]
75%: pest or weed control at 2000 g/ha [9, 33] | pest or weed control at 500 g/ha [10, 31] | pest or weed control at 2000 g/ha [10, 31]
40%: pest or weed control at 250 g/ha [8, 29]
5%: pest or weed control at 250 g/ha [6, 23] | pest or weed control at 500 g/ha [6, 23]
50%: pest or weed control at 125 g/ha [5, 21] | pest or weed control at 250 g/ha [6, 24] | pest or weed control at 500 g/ha [6, 24]
